Source: ChEMBL document CHEMBL4196108, “5-Aroylindoles Act as Selective Histone Deacetylase 6 Inhibitors Ameliorating Alzheimer's Disease Phenotypes” (J Med Chem, 2018)

Tests used:
[1] = target: T1, Protein deacetylase HDAC6 (Homo sapiens, UniProt Q9UBN7); assay: Inhibition of human HDAC6 using RHKKAc peptide as substrate
T1 sequence (Q9UBN7 whole entry): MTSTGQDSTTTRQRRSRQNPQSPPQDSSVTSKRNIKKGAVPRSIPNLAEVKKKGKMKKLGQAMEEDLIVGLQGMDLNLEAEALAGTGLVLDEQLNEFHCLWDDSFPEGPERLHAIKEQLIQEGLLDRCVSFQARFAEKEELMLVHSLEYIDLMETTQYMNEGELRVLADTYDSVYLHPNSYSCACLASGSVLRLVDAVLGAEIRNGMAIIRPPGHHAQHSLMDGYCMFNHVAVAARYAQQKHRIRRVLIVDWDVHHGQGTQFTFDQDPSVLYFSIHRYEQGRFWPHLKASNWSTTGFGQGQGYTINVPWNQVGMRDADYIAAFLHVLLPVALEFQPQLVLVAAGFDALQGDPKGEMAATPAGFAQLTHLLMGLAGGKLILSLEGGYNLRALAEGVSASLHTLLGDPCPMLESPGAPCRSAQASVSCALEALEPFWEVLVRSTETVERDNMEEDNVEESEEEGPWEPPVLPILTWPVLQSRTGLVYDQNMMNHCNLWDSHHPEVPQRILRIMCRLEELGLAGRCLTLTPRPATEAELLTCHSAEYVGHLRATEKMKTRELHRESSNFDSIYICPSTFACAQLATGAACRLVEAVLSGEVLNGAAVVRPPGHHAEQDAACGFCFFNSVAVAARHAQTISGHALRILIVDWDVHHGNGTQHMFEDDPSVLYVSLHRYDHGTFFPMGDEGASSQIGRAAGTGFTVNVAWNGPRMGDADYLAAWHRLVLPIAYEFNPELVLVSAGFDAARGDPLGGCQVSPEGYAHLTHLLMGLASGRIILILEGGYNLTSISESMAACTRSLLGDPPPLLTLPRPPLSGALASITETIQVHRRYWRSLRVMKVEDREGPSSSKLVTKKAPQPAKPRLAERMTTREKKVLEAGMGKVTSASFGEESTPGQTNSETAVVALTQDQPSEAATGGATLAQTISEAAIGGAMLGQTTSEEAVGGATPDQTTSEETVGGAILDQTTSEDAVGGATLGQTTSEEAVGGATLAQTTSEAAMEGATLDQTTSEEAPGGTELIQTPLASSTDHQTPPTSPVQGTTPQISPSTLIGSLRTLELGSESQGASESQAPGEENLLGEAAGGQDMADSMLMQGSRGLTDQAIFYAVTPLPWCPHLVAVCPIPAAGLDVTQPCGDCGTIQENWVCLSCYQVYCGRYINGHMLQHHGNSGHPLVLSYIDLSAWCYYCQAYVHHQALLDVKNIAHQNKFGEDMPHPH

[2] = target: T2, Polyamine deacetylase HDAC10 (Homo sapiens, UniProt Q969S8); assay: Inhibition of human HDAC10 using RHKKAc peptide as substrate
T2 sequence (Q969S8 whole entry): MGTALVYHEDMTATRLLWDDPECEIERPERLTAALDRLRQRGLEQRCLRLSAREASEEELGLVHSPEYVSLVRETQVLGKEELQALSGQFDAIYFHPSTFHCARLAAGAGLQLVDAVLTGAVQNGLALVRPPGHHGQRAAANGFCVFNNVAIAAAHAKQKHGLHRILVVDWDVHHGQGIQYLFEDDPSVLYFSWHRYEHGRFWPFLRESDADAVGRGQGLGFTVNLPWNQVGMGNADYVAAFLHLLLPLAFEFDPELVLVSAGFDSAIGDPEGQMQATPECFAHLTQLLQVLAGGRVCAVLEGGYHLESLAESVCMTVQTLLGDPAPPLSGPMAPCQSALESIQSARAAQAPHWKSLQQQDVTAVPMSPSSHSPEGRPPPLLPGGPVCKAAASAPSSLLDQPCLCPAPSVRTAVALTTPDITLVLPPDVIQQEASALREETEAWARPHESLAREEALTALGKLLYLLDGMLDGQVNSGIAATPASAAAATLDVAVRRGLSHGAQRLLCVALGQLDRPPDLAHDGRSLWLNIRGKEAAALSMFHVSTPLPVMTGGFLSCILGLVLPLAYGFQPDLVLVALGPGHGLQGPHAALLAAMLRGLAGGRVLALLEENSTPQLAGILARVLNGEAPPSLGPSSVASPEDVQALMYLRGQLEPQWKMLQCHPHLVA

Homo sapiens [3] = organism: Homo sapiens; assay: Selectivity index, ratio of IC50 for human HDAC8 to IC50 for human HDAC6
Homo sapiens [4] = organism: Homo sapiens; assay: Selectivity index, ratio of IC50 for human HDAC2 to IC50 for human HDAC6
Homo sapiens [5] = organism: Homo sapiens; assay: Selectivity index, ratio of IC50 for human HDAC3 to IC50 for human HDAC6
Histone deacetylase 3 = Histone deacetylase 3 (Homo sapiens, UniProt O15379)
Histone deacetylase 2 = Histone deacetylase 2 (Homo sapiens, UniProt Q92769); assay: Inhibition of human HDAC2 using RHKKAc peptide as substrate
Homo sapiens [6] = organism: Homo sapiens; assay: Selectivity index, ratio of IC50 for human HDAC10 to IC50 for human HDAC6

Chain of Histone deacetylase 2 (Q92769 whole entry): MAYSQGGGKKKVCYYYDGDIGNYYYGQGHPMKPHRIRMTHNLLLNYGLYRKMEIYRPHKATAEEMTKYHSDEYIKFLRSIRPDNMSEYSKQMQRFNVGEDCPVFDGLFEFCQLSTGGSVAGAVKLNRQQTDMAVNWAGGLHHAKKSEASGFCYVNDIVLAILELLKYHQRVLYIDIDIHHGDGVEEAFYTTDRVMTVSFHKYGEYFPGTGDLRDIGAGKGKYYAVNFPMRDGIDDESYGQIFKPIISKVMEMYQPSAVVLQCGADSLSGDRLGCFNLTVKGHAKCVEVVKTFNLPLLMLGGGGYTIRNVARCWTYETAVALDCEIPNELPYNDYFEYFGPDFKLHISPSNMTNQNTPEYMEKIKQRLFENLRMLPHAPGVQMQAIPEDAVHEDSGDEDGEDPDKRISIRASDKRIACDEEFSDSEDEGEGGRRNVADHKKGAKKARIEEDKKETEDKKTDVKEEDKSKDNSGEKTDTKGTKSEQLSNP
Chain of Histone deacetylase 3 (O15379 whole entry): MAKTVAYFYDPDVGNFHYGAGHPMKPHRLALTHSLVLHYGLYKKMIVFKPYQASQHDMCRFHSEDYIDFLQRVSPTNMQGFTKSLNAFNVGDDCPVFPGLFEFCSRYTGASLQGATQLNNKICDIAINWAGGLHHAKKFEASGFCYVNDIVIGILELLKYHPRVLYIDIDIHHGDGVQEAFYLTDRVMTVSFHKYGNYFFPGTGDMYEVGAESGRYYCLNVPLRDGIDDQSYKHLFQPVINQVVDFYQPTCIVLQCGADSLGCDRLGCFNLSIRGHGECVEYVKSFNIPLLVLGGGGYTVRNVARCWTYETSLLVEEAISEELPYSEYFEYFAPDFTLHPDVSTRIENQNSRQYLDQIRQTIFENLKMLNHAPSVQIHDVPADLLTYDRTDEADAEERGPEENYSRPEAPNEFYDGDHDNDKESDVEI

| IC50 [1] | IC50 [2] | Ratio IC50 (Homo sapiens [3]) | Ratio IC50 (Homo sapiens [4]) | Ratio IC50 (Homo sapiens [5]) | IC50 (Histone deacetylase 3) | IC50 (Histone deacetylase 2) | Ratio IC50 (Homo sapiens [6]) | Structure (SMILES) |
| --- | --- | --- | --- | --- | --- | --- | --- | --- |
| 0.00673 µM | > 100 µM | 158 | 312 | 984 | 6.62 µM | 2.1 µM | > 14900 | O=C(NO)c1ccc(Cn2ccc3cc(C(=O)c4ccc(Cl)cc4)ccc32)cc1 |
| 0.00925 µM | > 100 µM | 134 | 552 | 476 | 4.4 µM | 5.11 µM | > 10800 | O=C(NO)c1ccc(Cn2ccc3cc(C(=O)c4ccc(F)cc4)ccc32)cc1 |

| Structure (SMILES) | IC50 [1] | IC50 [2] | Ratio IC50 (Homo sapiens [3]) | Ratio IC50 (Homo sapiens [4]) | Ratio IC50 (Homo sapiens [5]) | IC50 (Histone deacetylase 3) | IC50 (Histone deacetylase 2) | Ratio IC50 (Homo sapiens [6]) |
| --- | --- | --- | --- | --- | --- | --- | --- | --- |
| COc1ccc(C(=O)c2ccc3c(ccn3Cc3ccc(C(=O)NO)cc3)c2)cc1 | 0.00392 µM | 59.8 µM | 165 | 145 | 1060 | 4.15 µM | 0.568 µM | 15300 |
